From ChEMBL document CHEMBL1149228, “Analysis of structure-activity relationships for the 'B-region' of N-(3-acyloxy-2-benzylpropyl)-N(')-[4-(methylsulfonylamino)benzyl]thiourea analogues as vanilloid receptor antagonists: discovery of an N-hydroxythiourea analogue with potent analgesic activity” (Bioorg Med Chem Lett, 2004) come the findings set out here.

The target in assay [1] is T1, Transient receptor potential cation channel subfamily V member 1 (Rattus norvegicus, UniProt O35433). The assay is described as follows: Agonist effect on 45 [Ca2+] influx in vanilloid receptor expressing CHO cells relative to maximal capsaicin (300 nM) response (ineffective). The class given is functional, cell-based.
Assay [2] deals with T1, Transient receptor potential cation channel subfamily V member 1. Put plainly: Binding affinity towards rat vanilloid receptor subtype 1 expressed in CHO cells by [3H]RTX displacement. Format: cell-based.
The target is the same in assay [3]. The assay is described as follows: In vitro antagonist effect against 50 nM capsaicin-induced 45 [Ca2+] influx in vanilloid receptor expressing CHO cells. Format: functional, cell-based.
The target is the same in assay [4]. The assay is described as follows: Agonist effect on 45 [Ca2+] influx in vanilloid receptor expressing CHO cells relative to maximal capsaicin (300 nM) response, weak effect at 30 µM.
The target in assay [5] is Transient receptor potential cation channel subfamily V member 1 (Rattus norvegicus) (UniProt O35433). The assay is described as follows: Agonist-induced 45 [Ca2+] influx relative to 300 nM capsaicin in vanilloid receptor expressing CHO cells.
Assay [6] has the same target. The assay is described as follows: Inhibition of […] nM capsaicin-induced 45 [Ca2+] influx in vanilloid receptor expressing CHO cells. Format: functional, cell-based.
The target in assay [7] is T1, Transient receptor potential cation channel subfamily V member 1. The assay is described as follows: In vitro antagonist effect against 50 nM capsaicin-induced 45 [Ca2+] influx in vanilloid receptor expressing CHO cells (ineffective). The class given is functional, cell-based.
The target in assay [8] is Transient receptor potential cation channel subfamily V member 1 (Rattus norvegicus) (UniProt O35433). The assay is described as follows: Inhibition of […] nM capsaicin-induced 45 [Ca2+] uptake in vanilloid receptor expressing CHO cells. Format: functional, cell-based.
The target in assay [9] is T1, Transient receptor potential cation channel subfamily V member 1. Put plainly: Agonist effect on 45 [Ca2+] influx in vanilloid receptor expressing CHO cells relative to maximal capsaicin (300 nM) response. Format: functional, cell-based.

As usually defined, the EC50 is the concentration needed to bring the measured effect to its halfway point. The term Ki denotes the equilibrium dissociation constant of an inhibitor or competing ligand from its target. Read a high Ki as weaker binding. Usually IC50 stands for the concentration that gives 50% inhibition. Read a high IC50 as lower potency. For orientation: inhibition means the percentage by which the read-out fell short of the control. Low values mean little suppression, high ones strong suppression.

T1 sequence (O35433 whole entry): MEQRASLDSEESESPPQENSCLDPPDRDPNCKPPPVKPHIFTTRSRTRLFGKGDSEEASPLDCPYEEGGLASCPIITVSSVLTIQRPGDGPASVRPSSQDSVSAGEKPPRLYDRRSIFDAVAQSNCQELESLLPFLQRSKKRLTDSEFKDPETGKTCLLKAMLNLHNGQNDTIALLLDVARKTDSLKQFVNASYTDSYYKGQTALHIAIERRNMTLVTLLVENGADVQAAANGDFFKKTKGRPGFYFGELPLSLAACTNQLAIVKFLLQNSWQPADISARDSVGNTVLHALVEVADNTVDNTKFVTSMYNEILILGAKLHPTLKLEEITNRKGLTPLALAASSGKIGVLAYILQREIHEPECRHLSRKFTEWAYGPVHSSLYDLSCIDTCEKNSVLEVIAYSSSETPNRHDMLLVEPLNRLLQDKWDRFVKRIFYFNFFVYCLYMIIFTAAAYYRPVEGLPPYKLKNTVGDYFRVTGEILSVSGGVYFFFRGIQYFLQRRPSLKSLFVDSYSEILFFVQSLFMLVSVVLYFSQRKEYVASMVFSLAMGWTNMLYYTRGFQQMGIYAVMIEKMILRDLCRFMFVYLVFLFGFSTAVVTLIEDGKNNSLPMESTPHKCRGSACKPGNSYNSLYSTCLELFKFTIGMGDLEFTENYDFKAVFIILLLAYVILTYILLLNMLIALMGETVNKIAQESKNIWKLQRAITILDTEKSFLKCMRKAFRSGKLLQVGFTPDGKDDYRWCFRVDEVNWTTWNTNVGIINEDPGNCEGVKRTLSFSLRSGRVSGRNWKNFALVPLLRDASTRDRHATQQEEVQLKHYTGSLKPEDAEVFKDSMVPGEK
Transient receptor potential cation channel subfamily V member 1 (Rattus norvegicus), sequence (O35433 whole entry): as above

For the compound `Cc1ccc(CC(COC(=O)Cc2ccc(NS(C)(=O)=O)cc2)COC(=O)C(C)(C)C)cc1C` (centres undefined), in assay [1], the EC50 entry is listed as “Not Active”. For the same compound, the inhibition constant Ki in [2] is 1980 nM. For the same compound, in assay [3], inhibition was half-maximal at 3600 nM (IC50).

As to `Cc1ccc(CC(CNC(=O)Cc2ccc(NS(C)(=O)=O)c(F)c2)COC(=O)C(C)(C)C)cc1C` (centres undefined), the 50% effective concentration (EC50) entry in assay [4] (cho) is given as “Partially active”. In assay [5], the agonist efficacy turned out to be 10%. Moreover, the inhibition in assay [6] came to 65%.

As to `COc1cc(CO/C(S)=N/CC(COC(=O)C(C)(C)C)Cc2ccc(C)c(C)c2)ccc1NS(C)(=O)=O` (centres undefined), the concentration giving a half-maximal response (EC50) in [4] (read-out: EC50) amounted to 373 nM. The compound further registered a Ki in assay [2] of 199 nM. Besides, the 50% inhibitory concentration (IC50) entry in [7] was “Not Active”.

Turning to `Cc1ccc(CC(CNC(=S)NCc2ccc(NS(C)(=O)=O)c(F)c2)COC(=O)C(C)(C)C)cc1C` (centres undefined), the EC50 entry in assay [1] is “Not Active”. It took 7.8 nM to reach half-maximal inhibition in assay [3] (IC50).

In turn, `Cc1ccc(CC(CNC(=S)OCc2ccc(NS(C)(=O)=O)cc2)COC(=O)C(C)(C)C)cc1C` (centres undefined) showed an inhibition in assay [8] of 79%. In [4] (cho), the half-maximal effective concentration (EC50) result is recorded as “Partially active”. The compound also gave an agonist efficacy in assay [5] of 11%. Besides, the inhibitory constant (Ki) in [2] turned out to be 336 nM. The compound also came in with a 50% inhibitory concentration (IC50) in assay [3] of 440 nM.

Consider `CC(C)(C)C(=O)OCC(Cc1ccc(C(C)(C)C)cc1)CN(O)/C(S)=N/Cc1ccc(NS(C)(=O)=O)c(F)c1` (centres undefined), for which, in assay [4] (cho), the EC50 result is recorded as “Partially active”. For the same compound, the agonist efficacy in assay [5] amounted to 13%. This compound also returned a Ki in [2] of 405 nM. In addition, in assay [3], the IC50 was found to be 10100 nM.

For the compound `Cc1ccc(CC(COC(=O)C(C)(C)C)CN(O)/C(S)=N/Cc2ccc(NS(C)(=O)=O)c(F)c2)cc1C` (centres undefined), the EC50 entry in assay [1] is reported as “Not Active”.

Turning to `Cc1ccc(CC(CN/C(S)=N/Cc2ccc(NS(C)(=O)=O)cc2)COC(=O)C(C)(C)C)cc1C` (centres undefined), the concentration for a half-maximal effect (EC50) result in assay [4] (cho) is “Partially active”. In addition, in [3], the IC50 came out at 67 nM.

`COc1cc(C/N=C(\S)N(O)CC(COC(=O)C(C)(C)C)Cc2ccc(C)c(C)c2)ccc1NS(C)(=O)=O` (centres undefined) displayed a Ki in [2] of 396 nM. Also, the IC50 result in [7] was “Not Active”. Besides, the half-maximal effective concentration (EC50) in assay [9] stood at 809 nM.

With `Cc1ccc(CC(CNC(=S)N(O)Cc2ccc(NS(C)(=O)=O)cc2)COC(=O)C(C)(C)C)cc1C` (centres undefined), the concentration giving a half-maximal response (EC50) entry in assay [4] (cho) is on record as “Partially active”. The same compound yielded an agonist efficacy in assay [5] of 12%. Further, the IC50 in assay [3] worked out at 331 nM.

`COc1cc(CC(=O)NCC(COC(=O)C(C)(C)C)Cc2ccc(C)c(C)c2)ccc1NS(C)(=O)=O` (centres undefined) came in with a Ki in [2] of 430 nM. Moreover, the IC50 result in assay [7] is “Not Active”. The 50% effective concentration (EC50) in assay [9] was 244 nM.

For `Cc1ccc(CC(COC(=O)C(C)(C)C)CN(O)/C(S)=N/Cc2ccc(NS(C)(=O)=O)cc2Cl)cc1C` (centres undefined), the concentration giving a half-maximal response (EC50) result in assay [1] is given as “Not Active”. In [2], this compound had an inhibition constant (Ki) of 220 nM. In assay [3], this compound came in with an IC50 of 757 nM.

In the case of `Cc1ccc(CC(CNC(=S)N(O)Cc2ccc(NS(C)(=O)=O)c(F)c2)COC(=O)C(C)(C)C)cc1C` (centres undefined), the EC50 result in assay [4] (cho) is recorded as “Partially active”. In addition, the IC50 entry in assay [7] is “Not Active”.

As for `Cc1ccc(CC(CNC(=O)Cc2ccc(NS(C)(=O)=O)cc2)COC(=O)C(C)(C)C)cc1C` (centres undefined), in assay [4] (cho), the EC50 entry is “Partially active”. This compound also came in with an agonist efficacy in [5] of 5.6%. This compound also gave a Ki in assay [2] of 500 nM. This compound came in with an IC50 in assay [3] of 460 nM.

For `Cc1ccc(CC(CNC(=S)OCc2ccc(NS(C)(=O)=O)c(F)c2)COC(=O)C(C)(C)C)cc1C` (centres undefined), the 50% effective concentration (EC50) result in [4] (cho) is listed as “Partially active”. In assay [5], this compound came in with an agonist efficacy of 7.5%. For the same compound, the affinity in assay [2] corresponds to a Ki of 210 nM. The compound also yielded an IC50 in [3] of 170 nM.

`COc1cc(C/N=C(\S)NCC(COC(=O)C(C)(C)C)Cc2ccc(C)c(C)c2)ccc1NS(C)(=O)=O` (centres undefined): in assay [7], the IC50 entry was “Not Active”.

For the compound `Cc1ccc(CC(COC(=O)C(C)(C)C)CN(O)/C(S)=N/Cc2ccc(NS(C)(=O)=O)cc2)cc1C` (centres undefined), the 50% effective concentration (EC50) result in assay [4] (cho) was “Partially active”. Further, the agonist efficacy in assay [5] turned out to be 12%.

For the compound `CC(C)(C)C(=O)OCC(CNC(=O)Cc1ccc(NS(C)(=O)=O)c(F)c1)Cc1ccc(C(C)(C)C)cc1` (centres undefined), the 50% effective concentration (EC50) result in [4] (cho) was “Partially active”. In [5], this compound yielded an agonist efficacy of 7%. In addition, affinity in assay [2] was put at a Ki of 74 nM. In addition, the inhibition in assay [6] came out at 56%. For the same compound, the IC50 in assay [3] is 440 nM.

With `CC(C)(C)C(=O)OCC(CNC(=S)NCc1ccc(NS(C)(=O)=O)c(F)c1)Cc1ccc(C(C)(C)C)cc1` (centres undefined), the 50% effective concentration (EC50) result in [4] (cho) is given as “Partially active”. This compound came in with an agonist efficacy in assay [5] of 5%. In assay [2], this compound showed an inhibition constant Ki of 22.6 nM. In addition, the IC50 in assay [3] was found to be 52 nM.

`Cc1ccc(CC(COC(=O)C(C)(C)C)CN(O)/C(S)=N/Cc2ccc(NS(C)(=O)=O)cc2F)cc1C` (centres undefined): the concentration giving a half-maximal response (EC50) entry in assay [4] (cho) is given as “Partially active”. The 50% inhibitory concentration (IC50) result in assay [7] was “Not Active”.
